Data published in patent US9611267B2, “Substituted tricyclic compounds as FGFR inhibitors” (Incyte Corporation, priority 2012, dated 2017).

What was measured:
Type in all cases: biochemical
FGFR1 = FGFR1 (Homo sapiens (Human), UniProt P11362); test: FGFR enzymatic assay (FRET peptide phosphorylation), FGFR1; settings: FGFR1 enzyme 0.02 nM, ATP 210 μM
Experimental: (§1) The inhibitor potency of the exemplified compounds was measured in an enzyme assay that measures peptide phosphorylation using FRET measurements to detect product formation. Inhibitors were serially diluted in DMSO and a volume of 0.5 μL was transferred to the wells of a 384-well plate. For FGFR3, a 10 μL volume of FGFR3 enzyme (Millipore) diluted in assay buffer (50 mM HEPES, 10 mM MgCl2, 1 mM EGTA, 0.01% Tween-20, 5 mM DTT, pH 7.5) was added to the plate and pre-incubated for 5-10 minutes. Appropriate controls (enzyme blank and enzyme with no inhibitor) were included on the plate. […] The plate was incubated at 25° C. for 1 hr. […] The plate was allowed to equilibrate for ˜1 hr before scanning the wells on a PheraStar plate reader (BMG Labtech).
(§2) The enzymes were purchased from Millipore or Invitrogen.
(§3) GraphPad prism3 was used to analyze the data. The IC50 values were derived by fitting the data to the equation for a sigmoidal dose-response with a variable slope. Y=Bottom+(Top−Bottom)/(1+10^((LogIC50−X)*HillSlope)) where X is the logarithm of concentration and Y is the response.

FGFR2 = FGFR2 (Homo sapiens (Human), UniProt P21802); test: FGFR enzymatic assay (FRET peptide phosphorylation), FGFR2; settings: FGFR2 enzyme 0.01 nM, ATP 100 μM
Experimental: as §1, §2, §3

FGFR3 = FGFR3 (Homo sapiens (Human), UniProt P22607); test: FGFR enzymatic assay (FRET peptide phosphorylation), FGFR3; settings: FGFR3 enzyme (Millipore), ATP 140 μM
Experimental: as §1, §3

Measured: IC50

FGFR2, sequence (P21802 22-821): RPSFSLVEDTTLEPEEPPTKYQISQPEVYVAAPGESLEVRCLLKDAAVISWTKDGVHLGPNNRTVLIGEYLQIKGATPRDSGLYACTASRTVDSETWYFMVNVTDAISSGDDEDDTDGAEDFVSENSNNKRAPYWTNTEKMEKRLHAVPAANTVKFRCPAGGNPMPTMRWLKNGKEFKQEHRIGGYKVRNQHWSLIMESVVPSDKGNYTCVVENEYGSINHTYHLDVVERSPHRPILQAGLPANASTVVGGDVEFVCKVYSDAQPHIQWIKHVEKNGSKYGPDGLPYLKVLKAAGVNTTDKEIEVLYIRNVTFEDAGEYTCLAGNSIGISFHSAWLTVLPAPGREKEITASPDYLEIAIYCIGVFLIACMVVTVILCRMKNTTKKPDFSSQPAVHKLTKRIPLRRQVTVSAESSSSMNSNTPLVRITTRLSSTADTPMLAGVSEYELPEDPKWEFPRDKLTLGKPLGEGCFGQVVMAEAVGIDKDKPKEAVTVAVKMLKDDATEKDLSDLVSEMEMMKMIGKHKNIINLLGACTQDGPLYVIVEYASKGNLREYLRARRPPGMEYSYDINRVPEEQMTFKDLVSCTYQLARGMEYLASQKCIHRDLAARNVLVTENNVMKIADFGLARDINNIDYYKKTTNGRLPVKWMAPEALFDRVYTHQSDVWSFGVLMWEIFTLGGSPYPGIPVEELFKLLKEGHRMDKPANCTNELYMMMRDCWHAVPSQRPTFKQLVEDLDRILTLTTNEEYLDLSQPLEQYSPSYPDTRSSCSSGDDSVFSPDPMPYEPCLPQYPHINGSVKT
FGFR1, sequence (P11362 22-822): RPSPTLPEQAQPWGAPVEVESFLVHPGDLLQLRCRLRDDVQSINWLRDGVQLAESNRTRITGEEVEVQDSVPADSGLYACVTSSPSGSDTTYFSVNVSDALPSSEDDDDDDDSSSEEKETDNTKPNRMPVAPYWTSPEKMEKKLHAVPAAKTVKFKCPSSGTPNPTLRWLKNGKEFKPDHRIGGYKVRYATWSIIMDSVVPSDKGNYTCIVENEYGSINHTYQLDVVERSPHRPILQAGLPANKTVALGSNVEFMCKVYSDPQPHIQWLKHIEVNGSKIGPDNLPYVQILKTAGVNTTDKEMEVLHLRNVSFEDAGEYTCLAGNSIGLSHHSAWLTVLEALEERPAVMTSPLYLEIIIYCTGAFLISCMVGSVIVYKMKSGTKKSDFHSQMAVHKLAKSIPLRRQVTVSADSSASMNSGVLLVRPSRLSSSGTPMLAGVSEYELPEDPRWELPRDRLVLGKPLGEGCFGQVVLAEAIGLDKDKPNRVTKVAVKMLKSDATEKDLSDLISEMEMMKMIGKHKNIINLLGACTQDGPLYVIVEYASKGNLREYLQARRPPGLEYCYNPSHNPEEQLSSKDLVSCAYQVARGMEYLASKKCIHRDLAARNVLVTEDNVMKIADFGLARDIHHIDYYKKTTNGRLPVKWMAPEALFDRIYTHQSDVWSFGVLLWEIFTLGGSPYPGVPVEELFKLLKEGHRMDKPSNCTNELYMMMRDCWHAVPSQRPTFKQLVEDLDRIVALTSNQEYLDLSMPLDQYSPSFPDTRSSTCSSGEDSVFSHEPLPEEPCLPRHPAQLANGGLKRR
FGFR3, sequence (P22607 23-806): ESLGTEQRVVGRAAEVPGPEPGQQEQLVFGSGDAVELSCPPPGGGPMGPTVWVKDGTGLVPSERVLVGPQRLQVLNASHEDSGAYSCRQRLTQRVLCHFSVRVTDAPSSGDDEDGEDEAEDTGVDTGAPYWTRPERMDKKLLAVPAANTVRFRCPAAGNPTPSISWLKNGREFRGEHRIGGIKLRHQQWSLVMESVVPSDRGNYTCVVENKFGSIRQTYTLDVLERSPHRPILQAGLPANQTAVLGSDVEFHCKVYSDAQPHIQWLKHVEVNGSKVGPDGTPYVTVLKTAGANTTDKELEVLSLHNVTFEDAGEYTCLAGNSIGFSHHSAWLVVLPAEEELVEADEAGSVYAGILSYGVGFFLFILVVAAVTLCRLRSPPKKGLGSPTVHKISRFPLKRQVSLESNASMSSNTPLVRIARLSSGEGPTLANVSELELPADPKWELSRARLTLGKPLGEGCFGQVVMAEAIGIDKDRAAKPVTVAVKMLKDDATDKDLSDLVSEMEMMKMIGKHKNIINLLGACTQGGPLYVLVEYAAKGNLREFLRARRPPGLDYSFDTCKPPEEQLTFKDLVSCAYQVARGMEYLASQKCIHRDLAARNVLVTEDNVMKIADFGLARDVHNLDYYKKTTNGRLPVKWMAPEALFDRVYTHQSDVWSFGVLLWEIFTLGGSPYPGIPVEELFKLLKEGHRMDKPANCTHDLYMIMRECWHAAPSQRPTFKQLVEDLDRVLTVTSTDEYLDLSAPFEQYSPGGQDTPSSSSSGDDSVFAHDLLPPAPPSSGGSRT

COc1cc(OC)c(F)c(N2Cc3cnc4[nH]c(CN5CCN(C)CC5)cc4c3N(c3cccc(F)c3F)C2=O)c1F [Example 192, 3-(2,6-difluoro-3,5-dimethoxyphenyl)-1-(2,3-difluorophenyl)-8-[(4-methylpiperazin-1-yl)methyl]-1,3,4,7-tetrahydro-2H-pyrrolo[3′,2′:5,6]pyrido[4,3-d]pyrimidin-2-one]
< 100 nM: all assays above

COc1cc(OC)c(F)c(N2Cc3cnc4[nH]c(C(=O)N5CCN(C)CC5)cc4c3N(C)C2=O)c1 [Example 30, 3-(2-Fluoro-3,5-dimethoxyphenyl)-1-methyl-8-[(4-methylpiperazin-1-yl)carbonyl]-1,3,4,7-tetrahydro-2H-pyrrolo[3′,2′:5,6]pyrido[4,3-d]pyrimidin-2-one]
< 100 nM: all assays above

COc1cc(OC)c(F)c(N2Cc3cnc4[nH]ncc4c3N(c3ncccc3F)C2=O)c1F [Example 218, 3-(2,6-Difluoro-3,5-dimethoxyphenyl)-1-(3-fluoropyridin-2-yl)-1,3,4,7-tetrahydro-2H-pyrazolo[4′,3′:5,6]pyrido[4,3-d]pyrimidin-2-one]
< 100 nM: all assays above

CCCN1C(=O)N(c2c(F)c(OC)cc(OC)c2F)Cc2cnc3[nH]c(CN4CCOCC4)cc3c21 [Example 184, 3-(2,6-difluoro-3,5-dimethoxyphenyl)-8-(morpholin-4-ylmethyl)-1-propyl-1,3,4,7-tetrahydro-2H-pyrrolo[3′,2′:5,6]pyrido[4,3-d]pyrimidin-2-one]
< 100 nM: all assays above

COc1cc(OC)c(Cl)c(N2Cc3cnc4c(c3N(c3cccc(F)c3F)C2=O)CC(=O)N4)c1F [Example 124, 3-(2-chloro-6-fluoro-3,5-dimethoxyphenyl)-1-(2,3-difluorophenyl)-3,4,7,9-tetrahydro-1H-pyrrolo[3′,2′:5,6]pyrido[4,3-d]pyrimidine-2,8-dione]
< 100 nM: all assays above

COc1cc(OC)c(F)c(N2Cc3cnc4[nH]ncc4c3N(C[C@@H]3CCOC3)C2=O)c1F [Example 179, 3-(2,6-difluoro-3,5-dimethoxyphenyl)-1-[(3S)-tetrahydrofuran-3-ylmethyl]-1,3,4,7-tetrahydro-2H-pyrazolo[4′,3′:5,6]pyrido[4,3-d]pyrimidin-2-one]
< 100 nM: all assays above

COc1cc(OC)cc(N2Cc3cnc4[nH]c(C(=O)N(C)C)cc4c3N(C)C2=O)c1 [Example 19, 3-(3,5-Dimethoxyphenyl)-N,N,1-trimethyl-2-oxo-2,3,4,7-tetrahydro-1H-pyrrolo[3′,2′:5,6]pyrido[4,3-d]pyrimidine-8-carboxamide]
< 100 nM: all assays above

COc1cc(OC)c(F)c(N2Cc3cnc4c(c3N(CC3CC3)C2=O)CC(=O)N4)c1F [Example 50, 1-(Cyclopropylmethyl)-3-(2,6-difluoro-3,5-dimethoxyphenyl)-3,4,7,9-tetrahydro-1H-pyrrolo[3′,2′:5,6]pyrido[4,3-d]pyrimidine-2,8-dione]
< 100 nM: all assays above

COc1cc(OC)c(F)c(N2Cc3cnc4[nH]c(CN5CC[C@H](N(C)C)C5)cc4c3C(C)(C)C2=O)c1F [Example 156, 7-(2,6-difluoro-3,5-dimethoxyphenyl)-2-{[(3S)-3-(dimethylamino)pyrrolidin-1-yl]methyl}-9,9-dimethyl-3,6,7,9-tetrahydro-8H-pyrrolo[2,3-c]-2,7-naphthyridin-8-one]
< 100 nM: all assays above

COc1cc(OC)c(F)c(N2Cc3cnc4[nH]c(CN5CCOCC5)cc4c3N(CCF)C2=O)c1F [Example 232, 3-(2,6-difluoro-3,5-dimethoxyphenyl)-1-(2-fluoroethyl)-8-(morpholin-4-ylmethyl)-1,3,4,7-tetrahydro-2H-pyrrolo[3′,2′:5,6]pyrido[4,3-d]pyrimidin-2-one]
< 100 nM: all assays above

COc1cc(OC)c(F)c(N2Cc3cnc4[nH]c(CN5CCN(C)CC5)cc4c3N(CCF)C2=O)c1F [Example 233, 3-(2,6-difluoro-3,5-dimethoxyphenyl)-1-(2-fluoroethyl)-8-[(4-methylpiperazin-1-yl)methyl]-1,3,4,7-tetrahydro-2H-pyrrolo[3′,2′:5,6]pyrido[4,3-d]pyrimidin-2-one]
< 100 nM: all assays above

COc1cc(OC)c(F)c(N2Cc3cnc4[nH]c(CCN5CCOCC5)cc4c3N(CCO)C2=O)c1F [Example 146, 3-(2,6-difluoro-3,5-dimethoxyphenyl)-1-(2-hydroxyethyl)-8-(2-morpholin-4-ylethyl)-1,3,4,7-tetrahydro-2H-pyrrolo[3′,2′:5,6]pyrido[4,3-d]pyrimidin-2-one]
< 100 nM: all assays above

COc1cc(OC)c(F)c(N2Cc3cnc4[nH]ncc4c3N(C)C2=O)c1F [Example 51, 3-(2,6-Difluoro-3,5-dimethoxyphenyl)-1-methyl-1,3,4,7-tetrahydro-2H-pyrazolo[4′,3′:5,6]pyrido[4,3-d]pyrimidin-2-one]
< 100 nM: all assays above

COc1cc(OC)c(F)c(N2Cc3cnc4[nH]c(C(=O)N(C)C)cc4c3N(C)C2=O)c1F [Example 35, 3-(2,6-Difluoro-3,5-dimethoxyphenyl)-N,N,1-trimethyl-2-oxo-2,3,4,7-tetrahydro-1H-pyrrolo[3′,2′:5,6]pyrido[4,3-d]pyrimidine-8-carboxamide]
< 100 nM: all assays above

COc1cc(OC)c(F)c(N2Cc3cnc4[nH]c(C(=O)N5CCN(C)CC5)cc4c3N(C)C2=O)c1F [Example 40, 3-(2,6-Difluoro-3,5-dimethoxyphenyl)-1-methyl-8-[(4-methylpiperazin-1-yl)carbonyl]-1,3,4,7-tetrahydro-2H-pyrrolo[3′,2′:5,6]pyrido[4,3-d]pyrimidin-2-one]
< 100 nM: all assays above

COc1cc(OC)c(F)c(N2Cc3cnc4[nH]c(CN5CCOCC5)cc4c3N(c3cccc(F)c3F)C2=O)c1F [Example 211, 3-(2,6-difluoro-3,5-dimethoxyphenyl)-1-(2,3-difluorophenyl)-8-(morpholin-4-ylmethyl)-1,3,4,7-tetrahydro-2H-pyrrolo[3′,2′:5,6]pyrido[4,3-d]pyrimidin-2-one]
< 100 nM: all assays above

COc1cccc(CN2C(=O)N(c3c(F)c(OC)cc(OC)c3F)Cc3cnc4[nH]ncc4c32)n1 [Example 176, 3-(2,6-difluoro-3,5-dimethoxyphenyl)-1-[(6-methoxypyridin-2-yl)methyl]-1,3,4,7-tetrahydro-2H-pyrazolo[4′,3′:5,6]pyrido[4,3-d]pyrimidin-2-one]
< 100 nM: all assays above

COc1cc(OC)c(F)c(N2Cc3cnc4[nH]c(CCN5CC(F)C5)cc4c3N(C)C2=O)c1F [Example 143, 3-(2,6-difluoro-3,5-dimethoxyphenyl)-8-[2-(3-fluoroazetidin-1-yl)ethyl]-1-methyl-1,3,4,7-tetrahydro-2Hpyrrolo[3′,2′:5,6]pyrido[4,3-d]pyrimidin-2-one]
< 100 nM: all assays above

COc1cc(OC)c(F)c(N2Cc3cnc4[nH]c(CN5CCN(C)CC5)cc4c3C(C)(C)C2=O)c1F [Example 153, 7-(2,6-difluoro-3,5-dimethoxyphenyl)-9,9-dimethyl-2-[(4-methylpiperazin-1-yl)methyl]-3,6,7,9-tetrahydro-8H-pyrrolo[2,3-c]-2,7-naphthyridin-8-one]
< 100 nM: all assays above

COc1cc(OC)c(F)c(N2Cc3cnc4[nH]c(CCN5CCN(C)CC5)cc4c3N(c3ccc(F)cc3)C2=O)c1F [Example 226, 3-(2,6-difluoro-3,5-dimethoxyphenyl)-1-(4-fluorophenyl)-8-[2-(4-methylpiperazin-1-yl)ethyl]-1,3,4,7-tetrahydro-2H-pyrrolo[3′,2′:5,6]pyrido[4,3-d]pyrimidin-2-one]
< 100 nM: all assays above

COc1cc(OC)c(F)c(N2Cc3cnc4[nH]ncc4c3N(c3cccc(C(=O)NC4CC4)c3F)C2=O)c1F [Example 200, N-cyclopropyl-3-[3-(2,6-difluoro-3,5-dimethoxyphenyl)-2-oxo-2,3,4,7-tetrahydro-1H-pyrazolo[4′,3′:5,6]pyrido[4,3-d]pyrimidin-1-yl]-2-fluorobenzamide]
< 100 nM: all assays above

COc1cc(OC)c(F)c(N2Cc3cnc4[nH]nc(C#N)c4c3N(C)C2=O)c1F [Example 53, 3-(2,6-Difluoro-3,5-dimethoxyphenyl)-1-methyl-2-oxo-2,3,4,7-tetrahydro-1H-pyrazolo[4′,3′:5,6]pyrido[4,3-d]pyrimidine-9-carbonitrile]
< 100 nM: all assays above
